Format in all cases: cell-based
Assay [1] concerns the target human EGFR exon 20 insertion ASV (V769_D770insASV) (Homo sapiens (Human), UniProt P00533, INS769ASV). In words: Ba/F3-EGFR-Exon20-ASV cell anti-proliferative assay (CellTiter 96 MTS, 72 h).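 Note: Ba/F3 cells bearing the EGFR exon 20 ASV insertion, a line able to proliferate without IL-3.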 The following applies: Ba/F3-EGFR-Exon20-ASV cells.
Assay [2] concerns the target human EGFR exon 20 insertion NPG (H773_V774insNPG) (Homo sapiens, UniProt P00533, INS773NPG, cells depend on it). In words: Ba/F3-EGFR-Exon20-NPG cell anti-proliferative assay (CellTiter 96 MTS, 72 h). The settings on record: read-out: EGFR exon 20 NPG insertion IC50.
Assay [3] concerns the target human EGFR E746-A750 deletion and T790M Mutation (DT) (Homo sapiens (Human), UniProt P00533, DEL746-750/T790M). The experiment in a line: Ba/F3-EGFR-Del/T790M cell anti-proliferative assay (CellTiter 96 MTS, 72 h). The following applies: Ba/F3-EGFR-Del/T790M cells; for IC50: read-out: EGFR exon 19 deletion and T790M mutation IC50.
Assay [4] has as its target Her2 exon 20 YVMA insertion (A775_G776ins YVMA) (Homo sapiens (Human), UniProt P04626, INS775YVMA). The experiment in a line: Ba/F3-Her2 Exon20 YVMA cell anti-proliferative assay (CellTiter 96 MTS, 72 h). The following applies: Ba/F3-Her2 Exon20 YVMA cells. The source says:
Ba/F3 cells expressing Her2 Exon20 YVMA insertions (named Ba/F3-Her2 Exon20 YVMA) can proliferate in the absence of IL-3.

Structures are written as SMILES. Some results are limits rather than exact numbers.

Sequence of human EGFR E746-A750 deletion and T790M Mutation (DT) (P00533 other isoform, or with tags, fused parts or gaps T790M/del E746-A750): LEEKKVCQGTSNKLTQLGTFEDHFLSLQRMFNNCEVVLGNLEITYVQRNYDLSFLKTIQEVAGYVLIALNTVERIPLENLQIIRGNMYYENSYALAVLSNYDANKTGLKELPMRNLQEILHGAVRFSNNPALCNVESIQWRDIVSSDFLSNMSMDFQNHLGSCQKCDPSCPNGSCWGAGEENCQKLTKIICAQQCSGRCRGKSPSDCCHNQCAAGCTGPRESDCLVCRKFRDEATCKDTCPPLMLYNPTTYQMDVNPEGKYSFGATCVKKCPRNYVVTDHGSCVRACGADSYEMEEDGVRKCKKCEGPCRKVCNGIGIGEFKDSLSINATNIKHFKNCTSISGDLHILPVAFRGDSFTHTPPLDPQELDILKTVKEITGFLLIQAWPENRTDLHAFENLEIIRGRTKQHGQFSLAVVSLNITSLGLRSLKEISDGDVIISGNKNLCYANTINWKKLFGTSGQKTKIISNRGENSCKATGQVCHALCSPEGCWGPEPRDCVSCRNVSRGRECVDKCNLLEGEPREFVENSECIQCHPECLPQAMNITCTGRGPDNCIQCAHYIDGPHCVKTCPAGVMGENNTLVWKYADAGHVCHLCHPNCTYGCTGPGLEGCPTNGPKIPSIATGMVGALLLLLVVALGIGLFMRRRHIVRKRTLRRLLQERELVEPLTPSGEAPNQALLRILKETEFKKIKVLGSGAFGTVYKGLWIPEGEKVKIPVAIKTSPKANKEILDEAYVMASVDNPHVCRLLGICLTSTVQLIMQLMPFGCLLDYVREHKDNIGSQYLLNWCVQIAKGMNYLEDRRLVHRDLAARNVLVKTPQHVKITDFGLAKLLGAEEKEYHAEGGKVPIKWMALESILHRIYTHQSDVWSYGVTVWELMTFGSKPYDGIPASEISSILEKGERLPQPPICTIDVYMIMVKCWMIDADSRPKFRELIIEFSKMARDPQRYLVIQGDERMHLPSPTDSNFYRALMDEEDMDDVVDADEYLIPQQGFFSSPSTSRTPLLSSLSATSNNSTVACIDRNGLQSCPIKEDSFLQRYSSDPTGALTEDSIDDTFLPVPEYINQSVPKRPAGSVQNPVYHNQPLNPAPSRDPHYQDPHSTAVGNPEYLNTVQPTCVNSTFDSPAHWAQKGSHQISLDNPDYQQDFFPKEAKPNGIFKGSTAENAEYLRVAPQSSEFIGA
Sequence of human EGFR exon 20 insertion NPG (H773_V774insNPG) (P00533 with tags, fused parts or gaps INS773NPG limits assumed): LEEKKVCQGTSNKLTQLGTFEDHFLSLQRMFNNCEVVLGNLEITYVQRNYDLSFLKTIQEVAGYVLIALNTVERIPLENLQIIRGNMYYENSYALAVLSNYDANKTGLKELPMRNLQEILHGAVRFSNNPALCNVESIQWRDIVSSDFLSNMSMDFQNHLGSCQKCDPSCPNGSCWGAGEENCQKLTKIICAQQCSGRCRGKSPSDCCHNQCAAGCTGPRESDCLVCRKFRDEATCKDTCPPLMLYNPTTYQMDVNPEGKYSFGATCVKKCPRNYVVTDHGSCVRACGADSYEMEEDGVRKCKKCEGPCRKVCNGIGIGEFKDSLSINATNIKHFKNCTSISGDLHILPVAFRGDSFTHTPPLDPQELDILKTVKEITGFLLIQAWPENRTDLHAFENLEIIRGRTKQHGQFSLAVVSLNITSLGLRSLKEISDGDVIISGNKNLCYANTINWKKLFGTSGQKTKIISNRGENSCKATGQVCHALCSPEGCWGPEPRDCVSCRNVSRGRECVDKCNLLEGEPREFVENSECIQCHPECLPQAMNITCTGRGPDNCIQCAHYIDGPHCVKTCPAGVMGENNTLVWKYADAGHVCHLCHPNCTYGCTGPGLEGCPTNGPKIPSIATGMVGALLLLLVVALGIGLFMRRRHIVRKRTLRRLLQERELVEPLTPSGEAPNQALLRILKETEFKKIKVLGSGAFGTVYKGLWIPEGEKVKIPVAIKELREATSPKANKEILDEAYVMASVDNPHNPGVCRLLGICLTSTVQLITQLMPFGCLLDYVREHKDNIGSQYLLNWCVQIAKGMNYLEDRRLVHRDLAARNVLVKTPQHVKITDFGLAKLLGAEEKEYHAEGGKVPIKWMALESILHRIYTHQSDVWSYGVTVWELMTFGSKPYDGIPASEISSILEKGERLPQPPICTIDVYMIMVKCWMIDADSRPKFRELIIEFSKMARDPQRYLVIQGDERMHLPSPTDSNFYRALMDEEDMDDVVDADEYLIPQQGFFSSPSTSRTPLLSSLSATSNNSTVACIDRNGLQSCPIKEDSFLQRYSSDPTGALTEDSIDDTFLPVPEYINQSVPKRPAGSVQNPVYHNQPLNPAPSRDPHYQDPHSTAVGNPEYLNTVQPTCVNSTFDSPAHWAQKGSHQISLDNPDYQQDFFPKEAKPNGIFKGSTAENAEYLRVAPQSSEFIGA
Sequence of Her2 exon 20 YVMA insertion (A775_G776ins YVMA) (P04626 other isoform, or with tags, fused parts or gaps ins YVMA behind 775): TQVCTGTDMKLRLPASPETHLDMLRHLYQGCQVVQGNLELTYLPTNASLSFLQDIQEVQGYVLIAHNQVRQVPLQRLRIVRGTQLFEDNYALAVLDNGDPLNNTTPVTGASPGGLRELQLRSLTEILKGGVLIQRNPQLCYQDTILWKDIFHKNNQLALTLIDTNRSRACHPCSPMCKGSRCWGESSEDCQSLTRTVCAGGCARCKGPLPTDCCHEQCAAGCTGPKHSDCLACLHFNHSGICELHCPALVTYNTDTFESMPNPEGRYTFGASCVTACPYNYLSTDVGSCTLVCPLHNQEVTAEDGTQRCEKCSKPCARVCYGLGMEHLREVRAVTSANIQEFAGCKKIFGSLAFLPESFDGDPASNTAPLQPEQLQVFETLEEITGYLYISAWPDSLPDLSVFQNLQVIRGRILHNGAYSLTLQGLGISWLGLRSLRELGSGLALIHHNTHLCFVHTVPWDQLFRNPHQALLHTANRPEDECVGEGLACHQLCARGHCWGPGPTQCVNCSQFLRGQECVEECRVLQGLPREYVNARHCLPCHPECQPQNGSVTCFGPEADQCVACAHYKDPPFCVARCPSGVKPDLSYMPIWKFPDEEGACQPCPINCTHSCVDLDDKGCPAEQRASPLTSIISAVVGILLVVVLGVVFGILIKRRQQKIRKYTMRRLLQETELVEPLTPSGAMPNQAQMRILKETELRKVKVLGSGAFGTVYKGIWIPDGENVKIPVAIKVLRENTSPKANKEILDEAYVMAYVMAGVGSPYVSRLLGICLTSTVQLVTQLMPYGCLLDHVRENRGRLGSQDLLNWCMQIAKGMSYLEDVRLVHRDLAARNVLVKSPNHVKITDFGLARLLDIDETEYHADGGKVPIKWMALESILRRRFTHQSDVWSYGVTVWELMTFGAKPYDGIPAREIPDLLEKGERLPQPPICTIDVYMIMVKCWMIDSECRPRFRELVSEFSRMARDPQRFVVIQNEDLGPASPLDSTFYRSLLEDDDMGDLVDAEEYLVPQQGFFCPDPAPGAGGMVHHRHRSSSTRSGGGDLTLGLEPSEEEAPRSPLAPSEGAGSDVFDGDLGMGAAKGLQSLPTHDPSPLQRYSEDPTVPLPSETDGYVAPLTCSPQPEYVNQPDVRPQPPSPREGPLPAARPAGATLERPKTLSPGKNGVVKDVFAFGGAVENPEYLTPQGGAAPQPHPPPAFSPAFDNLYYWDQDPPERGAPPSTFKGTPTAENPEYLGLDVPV
Sequence of human EGFR exon 20 insertion ASV (V769_D770insASV) (P00533 other isoform, or with tags, fused parts or gaps ins ASV behind 769): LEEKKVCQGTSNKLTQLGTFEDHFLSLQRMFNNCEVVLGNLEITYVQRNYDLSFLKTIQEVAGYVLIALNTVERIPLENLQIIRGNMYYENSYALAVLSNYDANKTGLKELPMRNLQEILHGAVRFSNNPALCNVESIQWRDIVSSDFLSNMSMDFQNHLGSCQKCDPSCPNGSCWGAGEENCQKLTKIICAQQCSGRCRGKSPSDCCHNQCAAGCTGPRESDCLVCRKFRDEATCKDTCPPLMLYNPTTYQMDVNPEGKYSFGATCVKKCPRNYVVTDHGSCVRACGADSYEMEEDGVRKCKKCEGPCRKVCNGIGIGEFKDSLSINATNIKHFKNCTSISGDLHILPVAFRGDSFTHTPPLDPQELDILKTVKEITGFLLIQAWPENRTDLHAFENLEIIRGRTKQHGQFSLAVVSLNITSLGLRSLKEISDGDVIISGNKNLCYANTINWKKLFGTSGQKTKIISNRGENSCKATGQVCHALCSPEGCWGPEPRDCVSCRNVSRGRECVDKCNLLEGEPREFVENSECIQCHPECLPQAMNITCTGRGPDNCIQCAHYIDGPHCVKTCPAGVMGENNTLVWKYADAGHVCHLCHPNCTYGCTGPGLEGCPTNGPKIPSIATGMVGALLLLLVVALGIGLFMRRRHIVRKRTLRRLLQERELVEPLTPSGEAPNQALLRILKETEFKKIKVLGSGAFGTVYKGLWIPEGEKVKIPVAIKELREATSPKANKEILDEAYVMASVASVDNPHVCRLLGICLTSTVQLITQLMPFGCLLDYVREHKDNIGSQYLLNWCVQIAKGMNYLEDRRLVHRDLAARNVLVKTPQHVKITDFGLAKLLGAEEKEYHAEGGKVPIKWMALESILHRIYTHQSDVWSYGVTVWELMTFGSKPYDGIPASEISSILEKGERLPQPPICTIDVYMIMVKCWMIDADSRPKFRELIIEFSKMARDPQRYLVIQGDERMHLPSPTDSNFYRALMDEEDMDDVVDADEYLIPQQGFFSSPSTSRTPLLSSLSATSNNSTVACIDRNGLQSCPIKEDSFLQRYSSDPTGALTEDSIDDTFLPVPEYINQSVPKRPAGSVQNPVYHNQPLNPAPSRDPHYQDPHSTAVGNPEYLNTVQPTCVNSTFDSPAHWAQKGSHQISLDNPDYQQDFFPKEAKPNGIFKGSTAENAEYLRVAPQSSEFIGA

The term IC50 denotes the concentration that gives 50% inhibition. Consider `C=CC(=O)Nc1cc(Nc2ncc(Cl)c(-c3cnn4ccccc34)n2)c(OC)cc1OCCN(C)C` [Example 51, N-(5-((5-chloro-4-(pyrazolo[1,5-a]pyridin-3-yl)pyrimidin-2-yl)amino)-2-(2-(dimethylamino)ethoxy)-4-methoxyphenyl)acrylamide], for which the IC50 in assay [1] was 100 to 500 nM; in assay [2], less than 100 nM; in assay [3], less than 100 nM; in assay [4] it was 100 to 500 nM.
`C=CC(=O)Nc1cc(Nc2ncc(C(=O)OC(C)CC)c(-c3cn(C)c4ccccc34)n2)c(OC)cc1N(C)CCN(C)C` (centres unmarked) [Example 29, sec-butyl 2-((5-acrylamido-4-((2-(dimethylamino)ethyl)(methyl)amino)-2-methoxyphenyl)amino)-4-(1-methyl-1H-indol-3-yl)pyrimidine-5-carboxylate]: the IC50 in assay [1], in assay [2], in assay [3] and in assay [4] was less than 100 nM each time.
On to `C=CC(=O)Nc1cc(Nc2ncc(N(C)C(=O)C(C)C)c(-c3cn(C)c4ccccc34)n2)c(OC)cc1N(C)CCN(C)C` [Example 40, N-(2-((2-(dimethylamino)ethyl)-(methyl)-amino)-4-methoxy-5-((4-(1-methyl-1H-indol-3-yl)-5-(N-methylisobutyramido)-pyrimidin-2-yl)amino)phenyl)acrylamide], for which the 50% inhibitory concentration (IC50) in assay [1] is 100 to 500 nM; in assay [2] it was 100 to 500 nM; in assay [4], more than 1000 nM. Besides, the “EGFR exon 19 deletion and T790M mutation IC50” value in assay [3] is recorded as “C (Group C compounds have an IC50 value for the indicated mutant between greater than about 500 to about 1 μM)”.
`C=CC(=O)Nc1cc(Nc2ncc(C(=O)OC(C)C)c(-n3ccc4ccccc43)n2)c(OC)cc1N(C)C[C@H]1CCCN1C` [Example 61, isopropyl (R)-2-((5-acrylamido-2-methoxy-4-(methyl((1-methylpyrrolidin-2-yl)methyl)amino)phenyl)amino)-4-(1H-indol-1-yl)pyrimidine-5-carboxylate]: the IC50 in assay [1] was less than 100 nM; in assay [2], less than 100 nM; in assay [3], less than 100 nM; in assay [4], 100 to 500 nM.
Turning to `C=CC(=O)Nc1cc(Nc2ncc(C(=O)OC)c(-n3ccc4ccccc43)n2)c(OC)cc1N(C)C[C@H]1CCCN1C` [Example 63, methyl (R)-2-((5-acrylamido-2-methoxy-4-(methyl((1-methylpyrrolidin-2-yl)methyl)amino)phenyl)amino)-4-(1H-indol-1-yl)pyrimidine-5-carboxylate], the IC50 in assay [1] was less than 100 nM; in assay [2], less than 100 nM; in assay [3] it was less than 100 nM; in assay [4], 500 to 1000 nM.
In the case of `C=CC(=O)Nc1cc(Nc2ncc(C(=O)OC(C)C)c(-c3cn(C4CC4)c4ccccc34)n2)c(OC)cc1N(C)CCN(C)C` [Example 79, isopropyl 2-((5-acrylamido-4-((2-(dimethylamino)ethyl)(methyl)amino)-2-methoxyphenyl)amino)-4-(1-cyclopropyl-1H-indol-3-yl)pyrimidine-5-carboxylate], the half-inhibitory concentration (IC50) in assay [1] was less than 100 nM; in assay [2], less than 100 nM; in assay [3], less than 100 nM; in assay [4] it was 100 to 500 nM.
In the case of `C=CC(=O)Nc1ccc(OC)c(Nc2ncc(C#N)c(-c3cn(C)c4cc(OCCN5CCCC5)ccc34)n2)c1` [Example 20, N-(3-((5-cyano-4-(1-methyl-6-(2-(pyrrolidin-1-yl)ethoxy)-1H-indol-3-yl)pyrimidin-2-yl)amino)-4-methoxyphenyl)acrylamide], the IC50 is 100 to 500 nM in assay [1], less than 100 nM in assay [2], less than 100 nM in assay [3] and 500 to 1000 nM in assay [4].
`C=CC(=O)Nc1cc(Nc2ncc(C(=O)OC)c(-c3cn(N(C)C)c4ccccc34)n2)c(OC)cc1N(C)CCN(C)C` [Example 76, methyl 2-((5-acrylamido-4-((2-(dimethylamino)ethyl)(methyl)amino)-2-methoxyphenyl)amino)-4-(1-(dimethylamino)-1H-indol-3-yl)pyrimidine-5-carboxylate]: the IC50 in assay [1], in assay [2], in assay [3] and in assay [4] was less than 100 nM each time.
`C=CC(=O)Nc1cc(Nc2ncc(C(=O)OC)c(-c3cn(C)c4ccccc34)n2)c(OC)cc1C#CCN(C)C` [Example 68, methyl 2-((5-acrylamido-4-(3-(dimethylamino)prop-1-yn-1-yl)-2-methoxyphenyl)amino)-4-(1-methyl-1H-indol-3-yl)pyrimidine-5-carboxylate]: the half-maximal inhibitory concentration (IC50) in assay [1] was 100 to 500 nM; in assay [2] it was less than 100 nM; in assay [3] it was less than 100 nM; in assay [4], 500 to 1000 nM.
In the case of `C=CC(=O)Nc1cc(Nc2ncnc(-c3c(-c4ccccc4)n(C)c4ccccc34)n2)c(OC)cc1N(C)CCN(C)C` [Example 3, N-(2-((2-(dimethylamino)ethyl)(methyl)amino)-4-methoxy-5-((4-(1-methyl-2-phenyl-1H-indol-3-yl)-1,3,5-triazin-2-yl)amino)phenyl)acrylamide], the IC50 was less than 100 nM in assay [1], less than 100 nM in assay [2], less than 100 nM in assay [3] and 100 to 500 nM in assay [4].
Take `C=CC(=O)Nc1cc(Nc2nccc(-c3cn(C)c4ccc(C(=O)OC)cc34)n2)c(OC)cc1N(C)CCN(C)C` [Example 81, methyl 3-(2-((5-acrylamido-4-((2-(dimethylamino)ethyl)(methyl)amino)-2-methoxyphenyl)amino)pyrimidin-4-yl)-1-methyl-1H-indole-5-carboxylate]: the half-maximal inhibitory concentration (IC50) in assay [1] is 100 to 500 nM; in assay [2], less than 100 nM; in assay [3] it was less than 100 nM; in assay [4], 500 to 1000 nM.
For `C=CC(=O)Nc1cc(Nc2ncc(C(=O)OC3CN(C)C3)c(-c3cn(C)c4ccccc34)n2)c(OC)cc1N(C)CCN(C)C` [Example 12, 1-methylazetidin-3-yl 2-((5-acrylamido-4-((2-(dimethylamino)ethyl)(methyl)amino)-2-methoxyphenyl)amino)-4-(1-methyl-1H-indol-3-yl)pyrimidine-5-carboxylate], the IC50 in assay [1], in assay [2], in assay [3] and in assay [4] was more than 1000 nM in each case.
On to `C=CC(=O)Nc1cc(Nc2ncnc(-c3c(C4=CCOCC4)n(C)c4ccccc34)n2)c(OC)cc1N(C)CCN(C)C` [Example 2, N-(5-((4-(2-(3,6-dihydro-2H-pyran-4-yl)-1-methyl-1H-indol-3-yl)-1,3,5-triazin-2-yl)amino)-2-((2-(dimethylamino)ethyl)(methyl)amino)-4-methoxyphenyl)acrylamide], for which the IC50 is less than 100 nM in assay [1], less than 100 nM in assay [2], less than 100 nM in assay [3] and 100 to 500 nM in assay [4].
On to `C=CC(=O)Nc1cc(Nc2ncnc(-c3c(C4CCOCC4)n(C)c4ccccc34)n2)c(OC)cc1N(C)CCN(C)C` [Example 4, N-(2-((2-(dimethylamino)ethyl)(methyl)amino)-4-methoxy-5-((4-(1-methyl-2-(tetrahydro-2H-pyran-4-yl)-1H-indol-3-yl)-1,3,5-triazin-2-yl)amino)phenyl)acrylamide], for which the values for the IC50 in assay [1], in assay [2] and in assay [4] were 100 to 500 nM, less than 100 nM and 100 to 500 nM, respectively. Besides, the “EGFR exon 19 deletion and T790M mutation IC50” value in assay [3] is reported as “B (Group B compounds have an IC50 value for the indicated mutant between about 100 to about 500 nM)”.

For the origin of these results see patent publication US10227342B2 (ARIAD PHARMACEUTICALS, INC., priority 2014, dated 2019).
